Source: US10717757B2, “Ketolides having antibacterial activity” (BIOPHARMATI SA, priority 2016, dated 2020)
In brackets after ≈: the same amount, converted by molar mass. Several values for one entry are separate records, joined by “and”; a condition that tells them apart may be missing. Equal values may be shown once.

Columns and labels:
[1] = tested on: CYP3A; settings: in vitro, cited from earlier work
[2] = target: T1, CYP3A4 (Homo sapiens, UniProt P08684); settings: background statement; cited from earlier work
[3] = tested on: S. pneumoniae ATCC 49619 (CLSI QC strain); assay: Minimum inhibitory concentration (MIC), broth microdilution, QC strain; format: cell-based, Streptococcus pneumoniae; settings: MIC in duplicates
Protocol: (§1) Protocols for Determining Minimum Inhibitory Concentration (MIC) of Test Compounds Against Streptococcus Pneumoniae Strains
(§2) The test strains are revived from frozen stock on blood agar plates and incubated at 35±2° C. for 18-20 hours in 5% CO2. Colonies are directly suspended from an overnight grown agar culture in CAMHB/saline and optical density adjusted to 0.5 McFarland turbidity standard (1-2×10^8 cfu/mL). Adjusted cultures are further diluted 1:100 using CAMHB such that after inoculation each well finally contains ˜5×10^5 cfu/mL. For broth dilution testing of Streptococcus species, CAMHB is supplemented with 2.5-5% v/v LHB. Colony counts of inoculum suspension is estimated by ten-fold serial dilutions and plating each dilution on agar plate. After incubation, the plates are observed for growth and microbial counts determined.
(§3) Compounds are weighed and dissolved in water/DMSO/other solvent to yield 1 mg/mL stock solution. Serial two-fold dilutions of the test compounds and reference antibiotics are prepared. 50 μL of the diluted drug solutions are dispensed in wells of microtiter trays (96 well).
(§4) To each of the wells of the microtiter tray, 50 μL of the diluted organism are inoculated to obtain a final inoculum density of ˜5×10^5 cfu/mL. Broth control, compound control and organism control wells are set up.
(§5) MIC testing are done in duplicates
(§6) MIC is defined as the lowest concentration of an antimicrobial agent that prevents visible growth of a microorganism in broth dilution susceptibility test.
(§7) After incubation period, growth of organism in the wells are detected by unaided eye facilitated by a viewing device. The amount of growth in the drug-containing wells are compared with the amount of growth in the organism-control wells.

[4] = tested on: S. pneumoniae AUCC479, macrolide & penicillin sensitive; assay: Minimum inhibitory concentration (MIC), broth microdilution, AUCC479; format: cell-based, Streptococcus pneumoniae
Protocol: as §1, §2, §3, §4, §5, §6, §7

[5] = tested on: S. pneumoniae AUCC488, macrolide & penicillin resistant; assay: Minimum inhibitory concentration (MIC), broth microdilution, AUCC488; format: cell-based, Streptococcus pneumoniae
Protocol: as §1, §2, §3, §4, §5, §6, §7

[6] = tested on: S. pneumoniae AUCC489, macrolide & penicillin resistant; assay: Minimum inhibitory concentration (MIC), broth microdilution, AUCC489; format: cell-based, Streptococcus pneumoniae
Protocol: as §1, §2, §3, §4, §5, §6, §7

[7] = tested on: S. pneumoniae AUCC483, macrolide resistant & penicillin sensitive; assay: Minimum inhibitory concentration (MIC), broth microdilution, AUCC483; format: cell-based, Streptococcus pneumoniae
Protocol: as §1, §2, §3, §4, §5, §6, §7

[8] = target: P-gp (Homo sapiens, UniProt P08183); settings: background statement; cited from earlier work
[9] = target: T1, CYP3A4; assay: biochemical
Protocol: (§8) Cytochrome P4503A4 Inhibition Assay for Determining IC50
(§9) The potential of the compound to inhibit CYP 3A4 was tested by the LC-MS/MS based probe substrate method using human liver microsomes. Midazolam or testosterone, which are metabolized to hydroxymidazolam or hydroxytestosterone by CYP 3A4, were the probe substrates used. […] NADPH was added as the cofactor. […] After incubation for ten minutes, the amount of 1-hydroxymidazolam or 6β-hydroxyltestosterone formed was determined by LC-MS/MS method as a measure of enzyme activity. Percent inhibition of enzyme activity was calculated based on the amount of metabolites (1-hydroxymidazolam or 6β-hydroxyltestosterone) formed for each sample relative to the basal control and plotted in a curve versus the compound concentration to obtain the IC50.

[10] = Oral bioavailability and tissue distribution after a single oral treatment; format: in vivo
[11] = tested on: macrolide-resistant S. pneumoniae strains; assay: Mouse lung infection models; format: in vivo
[12] = target: T1, CYP3A4; assay: Cytochrome P4503A4 inhibition assay, human liver microsomes, LC-MS/MS probe substrate method
Protocol: as §8, §9

T1 sequence (P08684 whole entry): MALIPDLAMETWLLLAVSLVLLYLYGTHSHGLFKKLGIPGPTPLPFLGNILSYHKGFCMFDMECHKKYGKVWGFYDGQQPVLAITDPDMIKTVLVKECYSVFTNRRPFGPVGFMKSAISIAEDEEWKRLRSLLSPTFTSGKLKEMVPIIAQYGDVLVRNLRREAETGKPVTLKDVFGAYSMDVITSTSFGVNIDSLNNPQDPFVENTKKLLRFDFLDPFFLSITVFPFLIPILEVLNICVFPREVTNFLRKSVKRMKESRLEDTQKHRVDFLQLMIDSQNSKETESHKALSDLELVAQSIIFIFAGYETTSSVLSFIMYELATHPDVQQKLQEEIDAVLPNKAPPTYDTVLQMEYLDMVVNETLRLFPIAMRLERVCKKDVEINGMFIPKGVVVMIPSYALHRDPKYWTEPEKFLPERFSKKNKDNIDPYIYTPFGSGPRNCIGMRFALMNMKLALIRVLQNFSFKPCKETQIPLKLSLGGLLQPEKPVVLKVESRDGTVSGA
P-gp, sequence (P08183 whole entry): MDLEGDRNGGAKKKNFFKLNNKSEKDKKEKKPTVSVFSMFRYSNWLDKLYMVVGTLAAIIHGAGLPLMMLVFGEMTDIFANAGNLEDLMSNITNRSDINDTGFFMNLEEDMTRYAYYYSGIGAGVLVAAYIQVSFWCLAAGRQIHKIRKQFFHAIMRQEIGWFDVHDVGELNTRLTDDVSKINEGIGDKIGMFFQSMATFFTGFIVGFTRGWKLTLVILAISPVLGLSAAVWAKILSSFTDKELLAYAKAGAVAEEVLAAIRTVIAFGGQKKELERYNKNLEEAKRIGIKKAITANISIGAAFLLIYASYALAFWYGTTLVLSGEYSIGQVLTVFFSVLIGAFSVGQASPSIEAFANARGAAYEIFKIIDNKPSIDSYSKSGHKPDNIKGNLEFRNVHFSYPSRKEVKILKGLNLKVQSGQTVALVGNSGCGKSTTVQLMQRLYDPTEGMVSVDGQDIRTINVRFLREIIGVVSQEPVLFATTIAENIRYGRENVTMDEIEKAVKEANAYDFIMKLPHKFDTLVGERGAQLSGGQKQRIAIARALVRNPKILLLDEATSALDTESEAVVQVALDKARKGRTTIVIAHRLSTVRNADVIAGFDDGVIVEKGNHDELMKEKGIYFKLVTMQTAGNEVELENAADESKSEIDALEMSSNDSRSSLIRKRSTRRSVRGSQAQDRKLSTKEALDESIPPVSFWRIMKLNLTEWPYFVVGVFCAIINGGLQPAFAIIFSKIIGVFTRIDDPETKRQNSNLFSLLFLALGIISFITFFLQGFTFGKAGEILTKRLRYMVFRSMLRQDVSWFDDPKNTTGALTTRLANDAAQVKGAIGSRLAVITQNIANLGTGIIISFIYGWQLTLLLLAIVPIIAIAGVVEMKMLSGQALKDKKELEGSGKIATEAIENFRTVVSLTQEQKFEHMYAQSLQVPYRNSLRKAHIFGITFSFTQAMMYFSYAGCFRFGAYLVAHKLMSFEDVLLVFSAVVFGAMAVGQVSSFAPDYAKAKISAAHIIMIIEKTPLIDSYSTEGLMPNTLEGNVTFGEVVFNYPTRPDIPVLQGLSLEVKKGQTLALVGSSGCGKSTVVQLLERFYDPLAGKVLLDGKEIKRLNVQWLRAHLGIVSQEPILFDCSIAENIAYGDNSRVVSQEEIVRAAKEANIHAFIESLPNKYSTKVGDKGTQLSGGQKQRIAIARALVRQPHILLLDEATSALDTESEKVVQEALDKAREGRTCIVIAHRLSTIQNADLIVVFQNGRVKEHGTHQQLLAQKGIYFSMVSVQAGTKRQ

Compound | IC50 ([1]; Katz et al / FDA briefing document, read-out: IC50 of CYP3A-dependent nifedipine oxidation) | IC50 of CYP3A-dependent nifedipine oxidation ([1]; same value in ng/mL) | inhibition of CYP3A4 [2] | MIC ([3]; Streptococcus pneumoniae, ATCC49619 QC strain, read-out: MIC Strep. Pneumoniae ATCC49619 QC strain) | MIC Strep. Pneumoniae AUCC 479 penS, macS [4] | MIC Strep. Pneumoniae AUCC 488 penR, macR M or iMLS [5] | MIC Strep. Pneumoniae AUCC 489 penR, macR cMLS [6] | MIC Strep. Pneumoniae AUCC 483 penS, macR cMLS [7] | inhibition of P-gp [8] | IC50 [9] | MIC Strep. Pneumoniae ATCC49619 QC strain [3] | time drug level in the lungs remained elevated ([10]; lungs, after a single oral treatment) | oral bioavailability ([10]; oral) | tissue distribution ([10]; oral) | efficacy in mouse lung infection models [11] | IC50 ([12]; read-out: IC50 CYP3A4 (midazolam), human liver microsomes 0.1 mg/mL, 5 μM midazolam, 10 min) | CYP3A4 inhibition in comparison with solithromycin and ketoconazole ([12]; summary of Table 1)
CC[C@H]1OC(=O)[C@H](C)C(=O)[C@H](C)[C@@H](O[C@@H]2O[C@H](C)C[C@H](N(C)C)[C@H]2O)[C@](C)(OC/C=C/c2cnc3ccccc3c2)C[C@@H](C)C(=O)[C@H](C)[C@H]2NC(=O)O[C@@]21C [cethromycin] | 630 nM | 0.4825 µg/mL | strong inhibition | – | – | – | – | – | – | – | – | – | – | – | – | – | –
CC[C@H]1OC(=O)[C@@](C)(F)C(=O)[C@H](C)[C@@H](O[C@@H]2O[C@H](C)C[C@H](N(C)C)[C@H]2O)[C@](C)(OC)C[C@@H](C)C(=O)[C@H](C)[C@H]2N(CCCCn3cc(-c4cccc(N)c4)nn3)C(=O)O[C@]12C [solithromycin, reference compound] | – | – | strong inhibitor | 0.004 to 0.015 µg/mL (≈ 4.73 to 17.8 nM) | 0.004 to 0.015 µg/mL | 0.06 to 0.25 µg/mL | 0.004 to 0.008 µg/mL | 0.008 to 0.015 µg/mL | moderate inhibitor | 400 nM and 1490 nM | – | – | – | – | – | – | –
(3aS,4R,7R,9R,10R,11R,13R,15R,15aR)-10-{[(2S,3R,4S,6R)-4-(dimethylamino)3-hydroxy-6-methyloxan-2-yl]oxy}-1-[3-(dimethylamino)propyl]-4-ethyl-3a,7,9,11,13,15-hexamethyl-11-{[(2E)-3-(quinolin-3-yl)prop-2-en-1-yl]oxy}tetradecahydro-1H-oxacyclotetradeca[4,3-d][1,3]oxazole-2,6,8,14-tetrone [Compound 13B] | – | – | – | – | 0.008 to 0.015 µg/mL | 0.12 to 0.25 µg/mL | 0.12 to 0.25 µg/mL | 0.12 to 0.25 µg/mL | – | – | 0.015 to 0.03 µg/mL | at least 8 hours | excellent | excellent | demonstrated efficacy | 6400 nM | lower IC50 inhibition of CYP3A4 inhibition
